Legend:
human NK2-receptor [1] = molecular target: T1, human NK2-receptor (Homo sapiens, UniProt P21452); experiment: Functional cellular test, Ca2+ measurements using FLIPR for NK2 activity;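 note: CHO cells stably expressing the human receptor, loaded with a calcium dye, antagonist inhibition of ligand-evoked intracellular calcium rise read as peak fluorescence change on FLIPR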
T1 sequence (P21452 1-398): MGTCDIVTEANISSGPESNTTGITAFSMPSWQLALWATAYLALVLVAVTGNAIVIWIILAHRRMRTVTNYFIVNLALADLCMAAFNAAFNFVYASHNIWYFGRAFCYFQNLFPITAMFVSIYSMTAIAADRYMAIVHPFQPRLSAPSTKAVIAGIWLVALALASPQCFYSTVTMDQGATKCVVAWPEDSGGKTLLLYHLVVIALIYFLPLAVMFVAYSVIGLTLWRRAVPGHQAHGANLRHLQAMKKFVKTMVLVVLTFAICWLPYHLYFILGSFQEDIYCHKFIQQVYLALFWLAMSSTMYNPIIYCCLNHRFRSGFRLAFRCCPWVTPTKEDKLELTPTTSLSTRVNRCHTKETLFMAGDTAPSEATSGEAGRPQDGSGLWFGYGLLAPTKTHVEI

human NK2-receptor [2] = molecular target: T1, human NK2-receptor; experiment: Binding potency of the test substances to NK2-receptors in vitro ([3H]-SR 48968 displacement); parameters: expressed in transfected cells; host or cells: CHO cells (membrane preparation); conditions: human NK2-receptor in CHO cell membranes, [3H]-SR 48968 (saredutant); average of at least three measurements; read-out: pKi, binding potency to NK2-receptors (converted)
From the text: 2. Determination of the Binding Potency of the Test Substances to NK2-Receptors in Vitro
The affinity of test compounds for NK2-receptors can be determined by measuring the ability of the test compound to displace a radiolabeled ligand from its specific binding site.
(§1) The radiolabel used in this assay is [^3H]-SR 48968 (saredutant). Receptors were obtained from membrane preparations of CHO-cells (Chinese Hamster Ovary cells), in which the human NK2-receptor was stably expressed. Membranes were incubated with [^3H]-saredutant in the absence or presence of test compounds at different concentrations, diluted in a buffer system. Separation of bound radioactivity from free radioactivity was done by filtration through glass fiber filters (Packard GF/B) with several washings with ice-cold buffer solution. Bound radioactivity was measured with a liquid scintillation counter (total binding). Unspecific binding was determined by incubation with an excess (0.1 μmol/l) of unlabeled saredutant. Specific binding is obtained by subtracting the unspecific binding from the total binding.
(§2) Radioactivity of the specific binding was plotted against the concentration of the test compound and IC50 values, i.e. the concentration of test compound by which 50% of the radioligand is displaced, were calculated. The inhibition constant (Ki) was calculated according to the Cheng-Prusoff equation, and listed as its negative logarithmic value (pKi). The pKi value describes the potency of a test compound to bind to a receptor.
(§3) The average result of all measurements is listed above.

human NK3 receptor = molecular target: T2, human NK3 receptor (Homo sapiens, UniProt P29371); experiment: Binding potency of the test substances to NK3-receptors in vitro ([3H]-SR 142801 displacement); parameters: expressed in transfected cells; host or cells: CHO cells (membrane preparation); conditions: human NK3-receptor in CHO cell membranes, [3H]-SR 142801 (osanetant); average of at least three measurements; read-out: pKi, binding potency to NK3-receptors (converted)
T2 sequence (P29371 1-465): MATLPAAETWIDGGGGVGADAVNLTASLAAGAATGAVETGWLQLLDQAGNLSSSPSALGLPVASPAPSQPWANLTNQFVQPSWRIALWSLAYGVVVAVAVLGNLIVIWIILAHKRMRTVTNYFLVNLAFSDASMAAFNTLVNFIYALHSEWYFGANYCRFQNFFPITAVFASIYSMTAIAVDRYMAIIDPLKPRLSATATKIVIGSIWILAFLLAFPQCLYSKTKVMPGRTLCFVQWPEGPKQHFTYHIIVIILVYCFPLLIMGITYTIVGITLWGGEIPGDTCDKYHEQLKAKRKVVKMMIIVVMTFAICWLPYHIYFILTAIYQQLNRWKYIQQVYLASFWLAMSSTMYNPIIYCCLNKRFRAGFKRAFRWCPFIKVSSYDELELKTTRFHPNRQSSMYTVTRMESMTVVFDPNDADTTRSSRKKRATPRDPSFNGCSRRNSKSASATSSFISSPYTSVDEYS
From the text: 3. Determination of the Binding Potency of the Test Substances to NK3-Receptors in Vitro
The affinity of test compounds for NK3-receptors can be determined by measuring the ability of the test compound to displace a radiolabeled ligand from its specific binding site.
as §1, with “142801 (osanetant).” for “48968 (saredutant).”, “NK3-receptor” for “NK2-receptor”, “[^3H]-osanetant” for “[^3H]-saredutant”, “(1” for “(0.1”, “osanetant.” for “saredutant.”
as §2, with “(pKi)” for “(pKi).”
as §3

| SMILES | Kb (human NK2-receptor [1]) [nM] | Ki (human NK2-receptor [2]) [nM] | Ki (human NK3 receptor) [nM] |
| --- | --- | --- | --- |
| CC(=O)N1CCC(C(=O)N(C)CC(CCN2CCC(C(=O)N(C)C)(N3CCCCC3)CC2)c2ccc(Cl)c(Cl)c2)CC1 (stereo not shown) [compound 52] | 3.98 | 15.8 | 12.6 |
| CN(C)C(=O)C1(N2CCCCC2)CCN(CCC(CN(C)C(=O)c2ccc3occc3c2)c2ccc(Cl)c(Cl)c2)CC1 (stereo not shown) [compound 68] | 10 | 2 | 10 |
| CN(C)C(=O)C1(N2CCCCC2)CCN(CCC(CN(C)C(=O)c2c(F)c(F)c(F)c(F)c2F)c2ccc(Cl)c(Cl)c2)CC1 (stereo not shown) [compound 73] | – | 12.6 | 39.8 |
| CN(C)C(=O)C1(N2CCCCC2)CCN(CCC(CN(C)C(=O)c2c(F)cccc2F)c2ccc(Cl)c(Cl)c2)CC1 (stereo not shown) [compound 74] | – | 3.98 | 25.1 |
| CN(C)C(=O)C1(N2CCCCC2)CCN(CCC(CN(C)C(=O)c2ccc(Cl)cc2Cl)c2ccc(Cl)c(Cl)c2)CC1 (stereo not shown) [compound 75] | – | 5.01 | 39.8 |
| CN(C)C(=O)C1(N2CCCCC2)CCN(CCC(CN(C)C(=O)c2c(Cl)cccc2Cl)c2ccc(Cl)c(Cl)c2)CC1 (stereo not shown) [compound 76] | – | 15.8 | 50.1 |
| CN(C)C(=O)C1(N2CCCCC2)CCN(CCC(CN(C)C(=O)c2ccccc2C(F)(F)F)c2ccc(Cl)c(Cl)c2)CC1 (stereo not shown) [compound 77] | – | 3.16 | 79.4 |
| Cc1ccccc1C(=O)N(C)CC(CCN1CCC(C(=O)N(C)C)(N2CCCCC2)CC1)c1ccc(Cl)c(Cl)c1 (stereo not shown) [compound 78] | – | 1.58 | 25.1 |
| CN(C)C(=O)C1(N2CCCCC2)CCN(CCC(CN(C)C(=O)c2cccc(F)c2)c2ccc(Cl)c(Cl)c2)CC1 (stereo not shown) [compound 79] | – | 2 | 20 |
| CN(C)C(=O)C1(N2CCCCC2)CCN(CCC(CN(C)C(=O)c2ccc(Cl)c(Cl)c2)c2ccc(Cl)c(Cl)c2)CC1 (stereo not shown) [compound 81] | – | 12.6 | 79.4 |
| CN(C)C(=O)C1(N2CCCCC2)CCN(CCC(CN(C)C(=O)c2ccc(Cl)cc2)c2ccc(Cl)c(Cl)c2)CC1 (stereo not shown) [compound 84] | – | 12.6 | 39.8 |
| COc1ccc(C(=O)N(C)CC(CCN2CCC(C(=O)N(C)C)(N3CCCCC3)CC2)c2ccc(Cl)c(Cl)c2)cc1 (stereo not shown) [compound 85] | – | 12.6 | 50.1 |
| CN(C)C(=O)C1(N2CCCCC2)CCN(CCC(CN(C)C(=O)c2ccc(C(F)(F)F)cc2)c2ccc(Cl)c(Cl)c2)CC1 (stereo not shown) [compound 86] | – | 12.6 | 63.1 |

Now from value to compound:

| Kb (human NK2-receptor [1]) [nM] | Ki (human NK2-receptor [2]) [nM] | Ki (human NK3 receptor) [nM] | SMILES |
| --- | --- | --- | --- |
| – | 7.94 | 39.8 | Cc1ccc(C(=O)N(C)CC(CCN2CCC(C(=O)N(C)C)(N3CCCCC3)CC2)c2ccc(Cl)c(Cl)c2)cc1 (stereo not shown) [compound 87] |
| – | 12.6 | 15.8 | CN(C)C(=O)C1(N2CCCCC2)CCN(CCC(CN(C)C(=O)Cc2ccccc2)c2ccc(Cl)c(Cl)c2)CC1 (stereo not shown) [compound 89] |
| – | 12.6 | 79.4 | CN(C)C(=O)C1(N2CCCCC2)CCN(CCC(CN(C)C(=O)C2CC2c2ccccc2)c2ccc(Cl)c(Cl)c2)CC1 (stereo not shown) [compound 90] |
| – | 7.94 | 15.8 | CN(C)C(=O)C1(N2CCCCC2)CCN(CCC(CN(C)C(=O)c2ccc(C#N)cc2)c2ccc(Cl)c(Cl)c2)CC1 (stereo not shown) [compound 91] |
| 1.58 | 3.16 | – | CN(C)C(=O)C1(N2CCCCC2)CCN(CC[C@H](CN(C)C(=O)c2ccccc2)c2ccccc2)CC1 [compound 94, 1′-[(3S)-4-[benzoyl(methyl)amino]-3-phenylbutyl]-N,N-dimethyl-1, 4′-bipiperidine-4′-carboxamide] |
| – | 1 | 15.8 | CN(C[C@@H](CCN1CCC(C(=O)N2CCCC2)(N2CCCCC2)CC1)c1ccc(Cl)c(Cl)c1)C(=O)c1ccccc1 [compound 124, N-{(2S)-2-(3,4-dichlorophenyl)-4-[4′-(pyrrolidin-1-ylcarbonyl)-1,4′-bipiperidin-1′-yl]butyl}-N-methylbenzamide] |

Source: US20070219214A1, “Dual NK2/NK3-antagonists, pharmaceutical compositions comprising them, and processes for their preparation” (Solvay pharmaceuticals GmbH, priority 2006, published 2007)
